Results published in US20250213478A1, “CATIONIC LIPID HAVING DISULFIDE BOND, LIPID MEMBRANE STRUCTURE INCLUDING SAME, NUCLEIC ACID INTRODUCTION AGENT AND PHARMACEUTICAL COMPOSITION CONTAINING ANY ONE OF SAME, METHOD FOR INTRODUCING NUCLEIC ACID INTO CELL OR TARGET CELL, AND METHOD FOR PRODUCING CELLULAR PHARMACEUTICAL” (NOF Corporation, priority 2022, published 2025).

Columns and labels:
[1] = Particle size, PdI and zeta potential of mRNA-encapsulating LNPs (dynamic light scattering); format: physicochemical; settings: mRNA-encapsulating LNP, cationic lipid:DOPC:Chol=55:5:40 + about 1 mol DMG-PEG2k; for PdI / particle size: dynamic light scattering; for zeta potential: physiological pH
How it was run: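 LNPs were made from cationic lipid:DOPC:Chol at 55:5:40 molar ratio plus about 1 mol DMG-PEG2k, microfluidically mixed with mRNA in malate buffer (20 mM, pH 3.0, 30 mM NaCl). They were ultrafiltered into PBS at 2 mM lipid. Size, PdI and zeta potential were measured by dynamic light scattering.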

HeLa cells = assay: Evaluation of in vitro gene expression in HeLa cell (luciferase mRNA-encapsulating LNP); format: cell-based, human; settings: for cumulative luciferase luminescence intensity over 24 hr: luciferase mRNA 0.4 μg per dish, LNP cationic lipid:DOPC:Chol:DMG-PEG2k=55:5:40:1; for gene expression activity compared to Comparative Example: result in words
How it was run: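 LNP (cationic lipid:DOPC:Chol:DMG-PEG2k=55:5:40:1) carrying luciferase mRNA, 0.4 μg mRNA per 3.5 cm dish, added to HeLa cells in D-MEM with 0.1 mM D-luciferin. Luminescence read 2 min every hour in an incubator luminometer; value is cumulative luminescence over 24 hr.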

BALB/c mouse = assay: Evaluation of in vivo gene expression (luciferase mRNA-encapsulating LNP, IVIS of isolated organs); settings: for relative value based on Comparative Example (amount of luminescence in spleen): relative to O-Ph-P4C2 LNP = 1.00; for amount of luminescence in each organ: heart / amount of luminescence in each organ: kidney / amount of luminescence in each organ: liver / amount of luminescence in each organ: lung / amount of luminescence in each organ: spleen: tail vein, mRNA 0.05 mg/kg, 4.5 hr + 15 min after administration; for amount of luminescence in each organ: spleen: spleen (Table 7)
How it was run: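 Luciferase mRNA in LNP (cationic lipid:DOPC:Chol:DMG-PEG2k = 55:5:40:1 molar) given by tail vein to male 5-week-old BALB/c mice at 0.05 mg mRNA/kg. At 4.5 hr, D-luciferin (3 mg/mouse) was given intraperitoneally; 15 min later liver, spleen, kidney, heart and lung were excised and luminescence (photons/sec) quantified by IVIS imaging.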

[2] = Measurement of Liposomal pKa of LNP (TNS fluorescence); format: physicochemical; settings: LNP without nucleic acid, cationic lipid:DOPC:Chol=52.5:7.5:40 + about 1.5 mol DMG-PEG2k; pH at which relative TNS fluorescence intensity was 50%
How it was run: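 Nucleic-acid-free LNPs (cationic lipid:DOPC:Chol 52.5:7.5:40, ~1.5 mol DMG-PEG2k) prepared by microfluidic mixing, diluted to 0.5 mM lipid, mixed with TNS in 150 mM NaCl buffers spanning pH 3.0–10.0. Fluorescence at ex 321/em 447 nm normalised 0–100% per LNP; pKa is the pH at 50%.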

For CCCCCCCCCCCCCCCCC(CCCCCCCCCCCCCCCC)C(=O)Oc1ccc(CC(=O)OCCSSCCOC(=O)NCCCCN(C)C)cc1 [Example 25], the PdI [1] was 0.126, the particle size [1] was 78 nm and the zeta potential [1] was 14.7 mV. For the same compound, the “cumulative luciferase luminescence intensity over 24 hr” value (HeLa cells) was 1.25E+07 RLU, the “gene expression activity compared to Comparative Example” value (HeLa cells) was “superior gene expression activity” and the “relative value based on Comparative Example (amount of luminescence in spleen)” value (BALB/c mouse) was 0.03. The “amount of luminescence in each organ: heart” value (BALB/c mouse) was 4.74E+05 photons/sec, the “amount of luminescence in each organ: kidney” value (BALB/c mouse) was 3.63E+05 photons/sec and the “amount of luminescence in each organ: liver” value (BALB/c mouse) was 1.67E+05 photons/sec. The “amount of luminescence in each organ: lung” value (BALB/c mouse) was 2.74E+05 photons/sec, the “amount of luminescence in each organ: spleen” value (BALB/c mouse) was 3.07E+05 photons/sec and the pKa [2] was 8.6.

Compound CCCCCCCCCCCCCCCCC(CCCCCCCCCCCCCCCC)C(=O)Oc1ccc(CC(=O)OCCSSCCOC(=O)N(C)CCN(CC)CC)cc1 [Example 29] has a PdI [1] of 0.080, a particle size [1] of 59 nm and a zeta potential [1] of 1.2 mV. The “cumulative luciferase luminescence intensity over 24 hr” value (HeLa cells) was 1.75E+07 RLU, the “gene expression activity compared to Comparative Example” value (HeLa cells) was “superior gene expression activity” and the “relative value based on Comparative Example (amount of luminescence in spleen)” value (BALB/c mouse) was 0.29. The “amount of luminescence in each organ: heart” value (BALB/c mouse) was 7.27E+05 photons/sec, the “amount of luminescence in each organ: kidney” value (BALB/c mouse) was 6.29E+05 photons/sec and the “amount of luminescence in each organ: liver” value (BALB/c mouse) was 8.05E+07 photons/sec. The “amount of luminescence in each organ: lung” value (BALB/c mouse) was 7.49E+05 photons/sec, the “amount of luminescence in each organ: spleen” value (BALB/c mouse) was 3.16E+06 photons/sec and the pKa [2] was 6.7.
